The target of this experiment is RIPK1 (Homo sapiens (Human), UniProt Q13546). The experiment can be described thus: RIPK1-ADP-Glo Enzymatic Assay. It counts as biochemical. The conditions noted are these: recombinant GST-RIPK1 kinase domain (residues 1-327), 25 nM, ten-point titration, 30 minutes pre-incubation. An outline of the steps:
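GST-RIPK1 kinase domain (residues 1-327, Sf21-expressed; 25 nM final) was pre-incubated 30 min at ambient temperature with compound (10-point 1:3 series from 100000 nM, 1% DMSO) in HEPES pH 7.3 buffer with 20 mM MgCl2. The reaction was started with 900 μM ATP (addition solution) and 3 μM dephosphorylated MBP and ran 150 min. Read-out was ADP-Glo luminescence, with EC50 from a four-parameter fit.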

Each structure is given as a SMILES string.

Chain of RIPK1 (Q13546 1-327): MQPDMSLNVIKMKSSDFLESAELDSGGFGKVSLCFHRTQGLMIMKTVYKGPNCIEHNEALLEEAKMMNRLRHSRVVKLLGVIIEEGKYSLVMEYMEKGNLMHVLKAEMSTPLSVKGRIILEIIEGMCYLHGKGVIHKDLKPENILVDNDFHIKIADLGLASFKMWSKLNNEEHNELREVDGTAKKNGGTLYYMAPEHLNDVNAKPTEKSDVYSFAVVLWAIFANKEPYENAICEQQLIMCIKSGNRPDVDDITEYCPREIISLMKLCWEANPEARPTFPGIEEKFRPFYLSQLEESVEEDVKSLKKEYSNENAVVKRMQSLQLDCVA

By EC50 is commonly meant the concentration giving half of the maximal effect. Take `O=C1N2[C@H](c3cc(F)cc(F)c3)CCN2CC12CCN(c1cnc(Cl)cn1)CC2` [Example 1.42, (S)-1-(5-chloropyrazin-2-yl)-7′-(3,5-difluorophenyl)dihydro-1′H,3′H,5′H-spiro[piperidine-4,2′-pyrazolo[1,2-a]pyrazol]-1′-one]: the concentration giving a half-maximal response (EC50) is 86 nM. With `Cn1nccc1-c1cc(N2CCC3(CC2)CN2CC[C@@H](c4cc(F)cc(F)c4)N2C3=O)ncn1` [Example 1.21, (S)-7′-(3,5-difluorophenyl)-1-(6-(1-methyl-1H-pyrazol-5-yl)pyrimidin-4-yl)dihydro-1′H,3′H,5′H-spiro[piperidine-4,2′-pyrazolo[1,2-a]pyrazol]-l′-one], the EC50 was 15 nM. As to `O=C1N2[C@H](c3cc(F)cc(F)c3)CCN2CC12CCN(c1cncc(F)c1)CC2` [Example 10.2, (S)-7′-(3,5-difluorophenyl)-1-(5-fluoropyridin-3-yl)dihydro-1′H,3′H,5′H-spiro[piperidine-4,2′-pyrazolo[1,2-a]pyrazol]-l′-one], the EC50 worked out at 338 nM. For the compound `Cc1nc(N2CCC3(CC2)CN2CC[C@@H](c4cc(F)cc(F)c4)N2C3=O)ccc1F` [Example 11.2, (S)-7′-(3,5-difluorophenyl)-1-(5-fluoro-6-methylpyridin-2-yl)dihydro-1′H,3′H,5′H-spiro[piperidine-4,2′-pyrazolo[1,2-a]pyrazol]-l′-one], the EC50 came out at 43 nM. Regarding `Cc1cc2c(N3CCC4(CC3)CN3CC[C@@H](c5cc(F)cc(F)c5)N3C4=O)ncnc2s1` [Example 1.67, (S)-7′-(3,5-difluorophenyl)-1-(6-methylthieno[2,3-d]pyrimidin-4-yl)dihydro-1′H,3′H,5′H-spiro[piperidine-4,2′-pyrazolo[1,2-a]pyrazol]-1′-one], the 50% effective concentration (EC50) was found to be 38 nM. Then `Cc1cn(-c2cc(N3CCC4(CC3)CN3CC[C@@H](c5cc(F)cc(F)c5)N3C4=O)ncn2)cn1` [Example 1.19, (S)-7′-(3,5-difluorophenyl)-1-(6-(4-methyl-1H-imidazol-1-yl)pyrimidin-4-yl)dihydro-1′H,3′H,5′H-spiro [piperidine-4,2′-pyrazolo[1,2-a]pyrazol]-1′-one], with 37 nM; and `COc1cc(N2CCC3(CC2)CN2CC[C@@H](c4cc(F)cc(F)c4)N2C3=O)ncn1` [Example 1.83, (S)-7′-(3,5-difluorophenyl)-1-(6-methoxypyrimidin-4-yl)dihydro-1′H,3′H,5′H-spiro[piperidine-4,2′-pyrazolo[1,2-a]pyrazol]-1′-one], with 28 nM; and `O=C1N2[C@H](c3cc(F)cc(F)c3)CCN2CC12CCN(c1ccc(C(F)(F)F)cn1)CC2` [Example 1.39, (S)-7′-(3,5-difluorophenyl)-1-(5-(trifluoromethyl)pyridin-2-yl)dihydro-1′H,3′H,5′H-spiro[piperidine-4,2′-pyrazolo[1,2-a]pyrazol]-1′-one], with 77 nM. Consider `O=C1N2[C@H](c3cc(F)cc(F)c3)CCN2CC12CCN(c1cnc(-c3ccc(Cl)cc3)cn1)CC2` [Example 2.18, (S)-1-(5-(4-chlorophenyl)pyrazin-2-y1)-7′-(3,5-difluorophenyl)dihydro-1′H,3′H,5′H-spiro[piperidine-4,2′-pyrazolo[1,2-a]pyrazol]-1′-one], for which the EC50 is 152 nM. For the compound `N#Cc1cc(N2CCC3(CC2)CN2CC[C@@H](c4cc(F)cc(F)c4)N2C3=O)ccn1` [Example 2.4, (S)-4-(7′-(3,5-difluorophenyl)-1′-oxodihydro-l′H,3′H,5′H-spiro[piperidine-4,2′-pyrazolo[1,2-a]pyrazol]-1-yl)picolinonitrile], the EC50 amounted to 49 nM. Then `O=C(c1ccncc1)N1CCC2(CC1)CN1CC[C@@H](c3cc(F)cc(F)c3)N1C2=O` [Example 4.5, (S)-7′-(3,5-difluorophenyl)-1-isonicotinoyldihydro-1′H,3′H,5′H-spiro[piperidine-4,2′-pyrazolo[1,2-a]pyrazol]-l′-one], with 414 nM; and `O=C1N2[C@H](c3cc(F)cc(F)c3)CCN2CC12CCN(c1cccc(C(F)(F)F)n1)CC2` [Example 1.63, (S)-7′-(3,5-difluorophenyl)-1-(6-(trifluoromethyl)pyridin-2-yl)dihydro-1′H,3′H,5′H-spiro[piperidine-4,2′-pyrazolo[1,2-a]pyrazol]-1′-one], with 83 nM.

Source of the values: patent publication US20240425524A1, “SPIROTRICYCLE RIPK1 INHIBITORS AND METHODS OF USES THEREOF” (Merck Sharp & Dohme LLC, priority 2021, published 2024).
